For four compounds, Kd and IC50 results are on record in paper PMC11149620 (Journal of medicinal chemistry, 2024).

Assay [1] addresses T1, Human ATAD2 BRD-containing protein (residues 966–1112) (Homo sapiens, UniProt Q6PL18).
T1 sequence (Q6PL18 966-1112): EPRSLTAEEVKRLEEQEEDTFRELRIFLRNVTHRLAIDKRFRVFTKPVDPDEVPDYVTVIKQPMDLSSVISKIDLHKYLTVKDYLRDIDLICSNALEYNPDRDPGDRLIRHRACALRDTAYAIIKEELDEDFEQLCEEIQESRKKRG
As to conditions: read-out: KD for ATAD2; ITC; cited from earlier work.

Assay [2] has as its target T2, human ATAD2B BRD-containing protein (residues 953–1085) (Homo sapiens, UniProt Q9ULI0).
T2 sequence (Q9ULI0 953-1085): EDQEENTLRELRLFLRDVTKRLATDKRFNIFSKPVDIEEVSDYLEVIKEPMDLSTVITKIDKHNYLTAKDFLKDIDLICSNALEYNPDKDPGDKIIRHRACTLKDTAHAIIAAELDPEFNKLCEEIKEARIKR
As to conditions: read-out: KD for ATAD2B; ITC; cited from earlier work.

Assay [3] addresses T2, human ATAD2B BRD-containing protein (residues 953–1085). The assay can be described thus: ITC of histone peptides with the ATAD2B BRD.
In another assay the test system is ATAD2 BRD. As to conditions: induces dimerization of the ATAD2 BRD to block binding to acetylated histones; cited from earlier work.

Where two headings read alike, the source gives them in different places. Where no end group is shown, it is not given here.

For the compound SGRGKacQGGKARA [H2AK5ac (1–12)], the Kd is 38.9 ± 5.9 µM in assay [1] and 42.5 ± 2.9 µM in assay [2].

With “SGRGKTGGK(Ac)ARAKAKSR-NH2 [H2A.XK9ac (1–17)]”, in assay [3], the Kd turned out to be 90 ± 12.8 µM.

For `COc1cc(Cl)c(C(=O)N[C@@H](CN[C@H]2CC[C@@H](N)CC2)Cc2ccc(C#N)cc2)cc1-c1ccc(CN[C@H](C)c2ccc(C)cc2)o1` [BAY-850], the IC50 in the assay on ATAD2 BRD was 0.02 µM.

Regarding “H4K5ac (1–15): wild-type histone H4K5ac ligand residues 1–15, values from earlier papers”, the Kd in assay [2] was 5.2 ± 1 µM.
